Experimental data as given in patent US20060161221A1, “Activation of calcium-mediated cell functions in cells and tissues, including aggregation of human platelets, by nanosecond pulsed electric fields” (priority 2004, published 2006).
Entries after “also recorded” stand apart in the source; their conditions may differ.

Key:
Format in all cases: cell-based, human
HL-60 cells [1] = experiment: Fura-2 measurement of agonist-induced calcium mobilization with and without BAPTA, media without calcium
Source text: (§1) Cell culture—Non-transformed HL-60 and Jurkat cells were obtained from and cultured as recommended by American Type Culture Collection (ATCC, Rockville, Md.) as previously described (Beebe, S. J., et al. (2002). IEEE Trans. Plasma Sci. 30:1 Part 2, 286-292; Beebe, S. J., et al. (2003). FASEB J. 17, 1493-1495). Cells were removed from log phase growth and suspended in Hanks Balanced Salt Solution (HBSS) in the presence or absence of Ca^2+ and Mg^2+. When calcium was omitted, cells were washed several times in buffer without added calcium. In other experiments, the calcium chelator BAPTA was added to chelate intracellular calcium. Cells were loaded with BAPTA-AM and washed in HBSS before the addition of agonists.
To be certain that BAPTA was able to chelate all intracellular calcium, two agents that mobilize calcium by two different mechanisms were used and the calcium concentration in the cell was directly measured using the fluorescent calcium indicator fura-2. Cells were loaded with Fura2 and BAPTA and tested in media without calcium. The first agonist tested was the purinergic agonist ATP, which leads to the release of intracellular calcium through a phospholipase C— and IP3-mediated mechanism through the IP3 receptor in the endoplasmic reticulum (Berridge, M. J. et al. (1998) Nature 395, 645-648). This is followed by an influx of calcium through store-operated calcium channels in the plasma membrane. […] The second agonist tested was cyclopiazonic acid (CPA), which causes increases in calcium by inhibiting the calcium-ATPase in the endoplasmic reticulum. This pump replenishes the intracellular calcium stores after actions by calcium-mobilizing agents. […] Thus, BAPTA inhibited rapid and transient as well as slow and sustained calcium mobilization by agents that acted on a plasma membrane receptor and an endoplasmic reticulum calcium pump.

Jurkat cells = experiment: Caspase activation (z-VAD-FITC, flow cytometry) in nsPEF-exposed, BAPTA-loaded Jurkat cells; settings: energy density ~1.7 J/cc
Experimental: FIG. 2 describes the effect of intracellular calcium chelation by BAPTA on caspase activation in human Jurkat cells. Jurkat cells were incubated with BAPTA-AM ([…]) in Hanks Balanced salt solution (HBSS) with calcium for 30 minutes and washed in HBSS with calcium. The BAPTA loaded cells were exposed to nsPEF as indicated. The electric fields were adjusted to provide a similar energy density (˜1.7 J/cc) under all conditions. After exposure to nsPEF, the cells were incubated with a cell permeable, irreversible inhibitor of active caspases, z-VAD-FITC for 20 minutes before analysis by flow cytometry (Beebe et al., (2003) FASEB J 17, 1493-1495). The values for caspase activity are expressed as the geometric mean z-VAD-FITC fluorescence determined in 15,000 individual cells. […]
(§2) Determination of caspase activation in vivo—Caspase activity was determined in vivo using a fluorescent-labeled, irreversible caspase inhibitor, VAD-fmk-FITC (Val-Ala-Asp-fluoromethylketone labeled with fluoroisothiocyanate) that is specific for the active site of the enzyme (see Beebe et al., 2003). Briefly, cells were exposed to nsPEF, incubated in the presence of the fluorescent caspase inhibitor for 20 minutes, washed to remove background fluorescence and subjected to flow cytometry. Values are expressed as the geometric mean FITC fluorescence. […]

HL-60 cells [2] = experiment: Caspase activation (z-VAD-FITC, flow cytometry) in nsPEF-exposed, BAPTA-loaded HL-60 cells; settings: pulses at 10, 60 and 300 ns, equalized energy density
Experimental: Experiments with HL-60 cells in the presence and absence of BAPTA cells were carried out as described for Jurkat cells in FIG. 2 (n=4).
as §1, with “Cells were loaded with BAPTA-AM and washed in HBSS before the addition of agonists.” left out
as §2

HL-60 cells [3] = experiment: Fluorometric analysis (fura-2) of intracellular free calcium [Ca2+]i in HL-60 cells; settings: for change in [Ca2+]i: 0.1 μM
Experimental: Cell culture-Non-transformed HL-60 cells were used for this study and were obtained from American Type Culture Collection (ATCC, Rockville, Md.). […] 2 mM CaCl2 was added to this buffer when loading cells with fluorescent indicators unless otherwise stated. In some experiments extracellular calcium was omitted by washing the cells several times in the same physiological buffer without added calcium. […] Post pulse, the cell suspension was removed from the pulsing cuvette and assayed. Fluorometric Analysis of Internal Calcium Response-To analyze the response of a greater number of cells, the fluorescent indicator fura-2 (Molecular Probes, Eugene, Oreg.) was used with a fluorometer. HL-60 cells were incubated with fura-2/AM (2 μM) in the physiological buffer described above containing 2 mM calcium for 45 minutes at 37° C. The cells were then washed and resuspended in calcium-free or calcium-containing buffer at a concentration of 7.7×10^6 cells/ml. […] Pulser® cuvettes could not be used to perform calcium measurements in the fluorometer because of the aluminum plates, which act to block either the excitation light or the emission light depending on the placement of the cuvette in the fluorometer. Therefore, the cells were first placed in the fluorometer cuvette, to obtain a baseline reading, cells were then removed from the fluorometer cuvette with a Pasteur pipette and added to the Pulser® cuvette.

[4] = cells loaded with Fura2 and BAPTA

Nc1ncnc2c1ncn2[C@@H]1O[C@H](COP(=O)(O)OP(=O)(O)OP(=O)(O)O)[C@@H](O)[C@H]1O [ATP]
calcium mobilization (fura-2) (HL-60 cells [1]; absence of BAPTA): rapid and transient increase

O=C(O)CN(CC(=O)O)c1ccccc1OCCOc1ccccc1N(CC(=O)O)CC(=O)O [BAPTA]
effect on nsPEF-induced caspase activation (Jurkat cells; pulses at 10 and 60 ns): no significant effect | reduction of nsPEF-induced caspase activity (Jurkat cells; pulses with 300 ns durations): about 25% | effect on nsPEF-induced caspase activity (HL-60 cells [2]): did not significantly affect | effect on ATP-induced calcium mobilization (HL-60 cells [1]; [4]): completely inhibited | effect on CPA-mediated calcium mobilization (HL-60 cells [1]; [4]): completely inhibited

O=c1ccn([C@@H]2O[C@H](COP(=O)(O)OP(=O)(O)OP(=O)(O)O)[C@@H](O)[C@H]2O)c(=O)[nH]1 [UTP]
[Ca2+]i on addition of 1.0 mM calcium to treated cells (capacitative calcium entry) (HL-60 cells [3]; 10 μM UTP in low calcium-containing buffer, then 1.0 mM calcium added): rapid rise | reduction of peak [Ca2+]i effect when added after one 60 ns 15 kV/cm pulse (HL-60 cells [3]; 10 μM, extracellular calcium deficient, vs UTP added before a pulse): approximately 60% | increase in [Ca2+]i (HL-60 cells [3]; 10 μM, extracellular calcium present): approximately 300 nM | effect on [Ca2+]i compared with 10 μM (HL-60 cells [3]; 100 μM, extracellular calcium present): did not produce any larger effect | effect on [Ca2+]i as % of that seen with 10 μM UTP (HL-60 cells [3]; 0.1 M (so in the source), extracellular calcium present): approximately 20% | increase in [Ca2+]i (HL-60 cells [3]; absence of extracellular calcium, transient): approximately 50 nM | [Ca2+]i increase by one 15 kV/cm pulse after the agonist, as % of pulse before agonist addition (HL-60 cells [3]; extracellular calcium deficient): approximately 25% | reduction of [Ca2+]i increase by one 15 kV/cm pulse given after the agonist (HL-60 cells [3]; extracellular calcium present): approximately 65% | reduction of [Ca2+]i effect when added after one 15 kV/cm pulse (HL-60 cells [3]; extracellular calcium present, vs UTP by itself): approximately 60%

COc1ccc([C@@H]2Sc3ccccc3N(CCN(C)C)C(=O)[C@@H]2OC(C)=O)cc1 [diltiazem]
effect on nsPEF-induced increases in [Ca2+]i (HL-60 cells [3]; HL-60 cells): no effect

C/C=C(/C)C(=O)O[C@H]1C(C)=C2[C@H]([C@@H]1OC(=O)CCCCCCC)[C@@](C)(OC(C)=O)C[C@H](OC(=O)CCC)[C@@]1(O)[C@H]2OC(=O)[C@@]1(C)O [thapsigargin]
[Ca2+]i response when added after one 15 kV/cm pulse (HL-60 cells [3]; 0.1 μM at approximately 50 seconds, 1 mM extracellular calcium): did not increase | change in [Ca2+]i (HL-60 cells [3]; extracellular calcium absent): smaller and more transient increase | change in [Ca2+]i (HL-60 cells [3]; extracellular calcium present): prolonged increase; also recorded: gradual and sustained increase | reduction of [Ca2+]i increase by one 15 kV/cm pulse given after the agonist (HL-60 cells [3]; extracellular calcium present): approximately 85%
